From US20240409662A1, “ANTIBODY MASKS AND USES THEREOF” (Vibrant Pharma Limited, priority 2021, published 2024)
Numbering of substitutions follows the chain as printed. Numbers in names are those of the source. Like-named read-outs stand apart in the source and are kept apart here. No end group written: not given here.

B1: SP34-CEA (bispecific antibody)
heavy: EVKLLESGGGLVQPKGSLKLSCAASGFTFNTYAMNWVRQAPGKGLEWVARIRSKYNNYATYYADSVKDRFTISRDDSQSILYLQMNNLKTEDTAMYYCVRHGNFGNSYVSWFAYWGQGTLVTVSS
light: QAVVTQESALTTSPGETVTLTCRSSTGAVTTSNYANWVQEKPDHLFTGLIGGTNKRAPGVPARFSGSLIGDKAALTITGAQTEDEAIYFCALWYSNLWVFGGGTKVEIK
chain: EVQLVESGGGFVQAGESLTLSCTSSTLTFTPYRMAWYRQAPGKQRDLVADISSGDGRTTNYADFAKGRFTISRDNIKNTVFLRMTNLKPEDTAVYYCNTFVSFVGIARSWGQGTQVTVSSESKYGPPCPPCPAPEAAGGPSVFLFPPKPKDTLMISRTPEVTCVVVDVSQEDPEVQFNWYVDGVEVHNAKTKPREEQFNSTYRVVSVLTVLHQDWLNGKEYKCKVSNKGLPSSIEKTISKAKGQPREPQVCTLPPSQEEMTKNQVSLSCAVKGFYPSDIAVEWESNGQPENNYKTTPPVLDSDGSFFLVSRLTVDKSRWQEGNVFSCSVMHEALHNRFTQKSLSLSL
B2: MMP9-digested L6-D2E (bispecific antibody, not shown: small tags and cut ends)
heavy: B1 heavy
light: B1 light
chain: B1 chain
B3: MMP9-digested L7-D2G (bispecific antibody, not shown: small tags and cut ends)
heavy: B1 heavy
light: B1 light
chain: B1 chain
B4: L5-D2E (bispecific antibody)
heavy: QEGNEESSGGSPLGLSSGGSEVKLLESGGGLVQPKGSLKLSCAASGFTFNTYAMNWVRQAPGKGLEWVARIRSKYNNYATYYADSVKDRFTISRDDSQSILYLQMNNLKTEDTAMYYCVRHGNFGNSYVSWFAYWGQGTLVTVSS
light: B1 light
chain: B1 chain
B5: L4-D2E (bispecific antibody)
heavy: QEGNEEGSGSPLGLGSGSEVKLLESGGGLVQPKGSLKLSCAASGFTFNTYAMNWVRQAPGKGLEWVARIRSKYNNYATYYADSVKDRFTISRDDSQSILYLQMNNLKTEDTAMYYCVRHGNFGNSYVSWFAYWGQGTLVTVSS
light: B1 light
chain: B1 chain
B6: L4-G3A (bispecific antibody)
heavy: B5 heavy with E2D, G3A
light: B1 light
chain: B1 chain

What was measured:
[1] = test system: SP34; assay: Masking capability of potential masks of SP34 (ELISA, BLI); assay type: binding; details: mask and linker fused to SP34 VH and/or VL
Experimental: Binding of the 19 M-TCEs to both their antigens CEACAM5 and CD3δε was assessed with BLI using ForteBio Red96 as described above.

[2] = test system: HT29 cells; assay: PBMC co-cultivation assay, M-TCE-induced killing of HT29 cells; assay type: cell-based, human; details: for EC50: HT29 + human PBMC, 72 hours, read-out: Efficacy (EC50); for tumor cell killing efficacy: digested vs undigested, in words; for Digested vs. masked: ratio of EC50 non-digested to MMP9-digested
Experimental: Five digested and undigested M-TCEs were tested for their tumor cell killing capability in the presence of human PBMC.
A total of 5×10^3 cells in RPMI1640 medium (supplemented with 10% FBS and 2 mM glutamine) of the target cell line (HT29) were seeded in 96-well plates (Day 0). A dilution series of respective antibodies was performed in assay media and added to target cells. On Day 0, a total of 5×10^4 PBMCs were added to each well, and the final reaction volume was adjusted to 200 μl. Percentage viability of target cell was measured by […]. LDH was measured after 72 hours using the Cell Counting Kit-8 (CK04, Dojindo, Japan) according to the manufacturer's recommendations. The results were analyzed as mean and standard deviation (SD) from triplicate wells and plotted as 4-parameter non-linear regression fittings using GraphPad Prism 9 software (GraphPad Software, San Diego, CA, USA).

[3] = target: CD3 on human PBMC (human, UniProt P07766 23-207); assay: cell-based or functional assay
CD3 on human PBMC, sequence (P07766 23-207): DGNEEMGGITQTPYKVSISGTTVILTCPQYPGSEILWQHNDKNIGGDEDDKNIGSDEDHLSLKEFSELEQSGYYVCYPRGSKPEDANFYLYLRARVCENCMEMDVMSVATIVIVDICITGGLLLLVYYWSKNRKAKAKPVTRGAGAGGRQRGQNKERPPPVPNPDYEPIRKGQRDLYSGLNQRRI

Molecule	Masking Capability [1]	other results
L4-WT: M-TCE; QDGNEEGSGSPLGLGSGS-SP34VH, SEQ ID NO 15	Yes	
L2-G3I: M-TCE; QDINEEGSPLGLGS-SP34VH, SEQ ID NO 37	No	
L0-WT: M-TCE; QDGNEEPLGL-SP34VH, SEQ ID NO 12	Yes	
L5-D2E: M-TCE; QEGNEESSGGSPLGLSSGGS-SP34VH, SEQ ID NO 28	Yes	EC50 ([2]; MMP9-digested): 0.013 nM; EC50 ([2]; Non-digested): 0.418 nM; tumor cell killing efficacy [2]: higher efficacy in inducing tumor cell killing than their undigested counterparts; Digested vs. masked [2]: 32×
L4-D2G: M-TCE; QGGNEEGSGSPLGLGSGS-SP34VH, SEQ ID NO 33	Yes	
L6-G3R: M-TCE; QDRNEESSGGGSPLGLSSGGGS-SP34VH, SEQ ID NO 45	Yes	
L5-D2G: M-TCE; QGGNEESSGGSPLGLSSGGS-SP34VH, SEQ ID NO 34	Yes	
L3-WT: M-TCE; QDGNEESGSPLGLSGG-SP34VH, SEQ ID NO 14	Yes	
L2-Q1Y: M-TCE; YDGNEEGSPLGLGS-SP34VH, SEQ ID NO 21	No	
L2-WT: M-TCE; QDGNEEGSPLGLGS-SP34VH, SEQ ID NO 13	Yes	
LC-L4-G2E: M-TCE, mask on VL; QEGNEEGSGSPLGLGSGS-SP34VL, SEQ ID NO 27	Yes	
L5-WT: M-TCE; QDGNEESSGGSPLGLSSGGS-SP34VH, SEQ ID NO 16	Yes	
L2-Q1H: M-TCE; HDGNEEGSPLGLGS-SP34VH, SEQ ID NO 22	No	
L2-D2R: M-TCE; QRGNEEGSPLGLGS-SP34VH, SEQ ID NO 25	No	
L2-Q1S: M-TCE; SDGNEEGSPLGLGS-SP34VH, SEQ ID NO 20	No	
L2-D2I: M-TCE; QIGNEEGSPLGLGS-SP34VH, SEQ ID NO 31	No	
L7-G3A: M-TCE; QDANEESSGGSGSPLGLSSGGSGS-SP34VH, SEQ ID NO 42	Yes	
L6-D2E: M-TCE; QEGNEESSGGGSPLGLSSGGGS-SP34VH, SEQ ID NO 29	Yes	EC50 ([2]; MMP9-digested): 0.01 nM; EC50 ([2]; Non-digested): 0.317 nM; tumor cell killing efficacy [2]: higher efficacy in inducing tumor cell killing than their undigested counterparts; Digested vs. masked [2]: 32×
L2-D2G: M-TCE; QGGNEEGSPLGLGS-SP34VH, SEQ ID NO 32	Yes	

Molecule	Masking Capability [1]	other results
L2-Q1V: M-TCE; VDGNEEGSPLGLGS-SP34VH, SEQ ID NO 23	No	
L4-G3R: M-TCE; QDRNEEGSGSPLGLGSGS-SP34VH, SEQ ID NO 44	Yes	
L7-D2E: M-TCE; QEGNEESSGGSGSPLGLSSGGSGS-SP34VH, SEQ ID NO 30	Yes	
L2-D2E: M-TCE; QEGNEEGSPLGLGS-SP34VH, SEQ ID NO 26	Yes	
L7-WT: M-TCE; QDGNEESSGGSGSPLGLSSGGSGS-SP34VH, SEQ ID NO 18	Yes	
L5-G3A: M-TCE; QDANEESSGGSPLGLSSGGS-SP34VH, SEQ ID NO 40	Yes	
L2-Q1E: M-TCE; EDGNEEGSPLGLGS-SP34VH, SEQ ID NO 19	No	
L2-G3A: M-TCE; QDANEEGSPLGLGS-SP34VH, SEQ ID NO 38	Yes	
L6-G3A: M-TCE; QDANEESSGGGSPLGLSSGGGS-SP34VH, SEQ ID NO 41	Yes	
L7-D2G: M-TCE; QGGNEESSGGSGSPLGLSSGGSGS-SP34VH, SEQ ID NO 36	Yes	EC50 ([2]; MMP9-digested): 0.011 nM; EC50 ([2]; Non-digested): 0.096 nM; tumor cell killing efficacy [2]: higher efficacy in inducing tumor cell killing than their undigested counterparts; Digested vs. masked [2]: 9×
L6-WT: M-TCE; QDGNEESSGGGSPLGLSSGGGS-SP34VH, SEQ ID NO 17	Yes	
L6-D2G: M-TCE; QGGNEESSGGGSPLGLSSGGGS-SP34VH, SEQ ID NO 35	Yes	
B1		EC50 of M-TCE-induced killing of HT29 cells in the presence of human PBMC [3]: 0.001 nM
B2		EC50 of M-TCE-induced killing of HT29 cells in the presence of human PBMC [3]: 0.01 nM
B3		EC50 of M-TCE-induced killing of HT29 cells in the presence of human PBMC [3]: 0.011 nM
B4		Digested vs. masked (ratio of killing EC50) [3]: 32 fold; EC50 of M-TCE-induced killing of HT29 cells in the presence of human PBMC [3]: 0.418 nM
B5		Digested vs. masked (ratio of killing EC50) [3]: 59 fold; EC50 of M-TCE-induced killing of HT29 cells in the presence of human PBMC [3]: 0.65 nM
B6		Digested vs. masked (ratio of killing EC50) [3]: 144 fold; EC50 of M-TCE-induced killing of HT29 cells in the presence of human PBMC [3]: 1.72 nM
